Experimental data taken from patent publication US10160986B2, “Chemoenzymatic synthesis of heparin and heparan sulfate analogs” (The Regents of the University of California, priority 2011, dated 2018).

Tests used:
[1] = molecular target: T1, AtGlcAK (Arabidopsis thaliana, UniProt Q93ZC9, I297M); assay: AtGlcAK substrate specificity by TLC and LC-MS; format: biochemical; details: sugar 10 mM, ATP 20 mM, AtGlcAK 22 μg, 37° C., 15 hr
T1 construct: made in house; host or cells: E. coli BL21 (DE3)
Description: Substrates specificity assays by thin-layer chromatography (TLC). […] For visualizing compounds on TLC plate, p-anisaldehyde sugar stain was used.
LC-MS assays for AtGlcAK reactions. The AtGlcAK reaction mixtures above were also analyzed by LC-MS. 2 μL of sample was diluted 100 fold and 8 μL was injected into a Waters spherisorb ODS-2 column (5 μm particles, 250 mm length, 4.6 mm I.D.). The sample was eluted with 30% acetonitrile in H2O with 0.1% formic acid and detected by ESI-MS in negative mode.

[2] = molecular target: T1, AtGlcAK; assay: AtGlcAK substrate specificity CE assay; format: biochemical; details: Low enzyme Conc. (412 ng in 20 μL, 15 min, 37° C.)
Description: Substrate specificity assays. […] The reactions were quenched and assayed with the same method as those for pH profile. All reactions were performed in duplicates.

[3] = molecular target: T2, human FGF-2 (Homo sapiens, UniProt P09038); assay: Inhibition of FGF-2 binding to immobilized heparin-biotin; details: compound 1 mM; FGF 1 μM
T2 construct: purchased PeproTech Inc (Rocky Hill, N.J.)
Description: (§1) Materials. Recombinant human fibroblast growth factors FGF-1, FGF-2, FGF-4, and anti-human FGF-1, FGF-2, FGF-4 were purchased from PeproTech Inc (Rocky Hill, N.J.). Heparin-biotin was from Sigma (St. Louis, Mo.). Low molecular weight heparin (LMWH) was bought from AMS Biotechnology (Lake Forest, Calif.). Alexa Fluor® 488 goat anti-rabbit IgG (H+L) was from Invitrogen (Carlsbad, Calif.). 384-Well NeutrAvidin-coated plates for the sialidase assays were from Fisher Biotech.
(§2) Methods. All assays were carried out in duplicate in 384-well NeutrAvidin coated plates. Heparin-biotin (20 μL, 2 μM) was added to each well and the plate was incubated at 4° C. for overnight. The plate was washed with 3 rounds of 1×PBS buffer containing 0.05% Tween-20 and blocked with 1% BSA (50 μL for each well) and incubated at r.t. for 30 min. After the plate was washed three times with 1×PBS buffer containing 0.05% Tween-20, each set of duplicate wells were added 20 μL of human FGF-1, FGF-2, or FGF-4 (1 μM) with or without premixing with LMWH (˜22 nM or 0.1 μM), monosaccharide, or oligosaccharides (100 μM or 1 mM) and the plate was incubate at r.t. for 1 hr. After washing three times with 1×PBS buffer containing 0.05% Tween-20, anti-human FGF-1, FGF-2 or FGF-4 (20 μL) was added and the plate was incubated at r.t. for 1 hr. After the plate was washed three times with 1×PBS buffer containing 0.05% Tween-20, Alexa Fluor® 488 goat anti-rabbit IgG (H+L) (20 μL) was added and the plate was incubated at r.t. for 1 hr. After washed three times with 1×PBS buffer containing 0.05% Tween-20 and once with water, the fluorescent signals of wells in the plate were measured using a microtiter plate reader.

[4] = molecular target: T3, human FGF-4 (Homo sapiens, UniProt P08620); assay: Inhibition of FGF-4 binding to immobilized heparin-biotin; details: compound 1 mM; FGF 1 μM
T3 construct: purchased PeproTech Inc (Rocky Hill, N.J.)
T3 sequence (P08620 31-206): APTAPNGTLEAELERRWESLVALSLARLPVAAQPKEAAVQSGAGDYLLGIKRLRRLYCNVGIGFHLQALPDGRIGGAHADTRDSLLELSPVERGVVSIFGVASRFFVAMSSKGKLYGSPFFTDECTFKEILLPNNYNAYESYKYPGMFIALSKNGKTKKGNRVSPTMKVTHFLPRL
Description: as §1
as §2, with “After washing three times with 1×PBS buffer containing 0.05% Tween-20, anti-human FGF-1, FGF-2 or FGF-4 (20 μL) was added and the plate was incubated at r.t. for 1 hr. After the plate was washed three times with 1×PBS buffer containing 0.05% Tween-20, Alexa Fluor® 488 goat anti-rabbit IgG (H+L) (20 μL) was added and the plate was incubated at r.t. for 1 hr.” left out

[5] = molecular target: T4, human FGF-1 (Homo sapiens, UniProt P05230); assay: Inhibition of FGF-1 binding to immobilized heparin-biotin; details: compound 1 mM; FGF 1 μM
T4 construct: purchased PeproTech Inc (Rocky Hill, N.J.)
Description: as §1, §2

[6] = molecular target: NahK_JCM1217 (Bifidobacterium longum subsp. longum, UniProt E8MF12); details: ATP and GlcNAc as substrates; HPIC with pulsed amperometric detector; cited from earlier work
[7] = molecular target: NahK_ATCC55813 (Bifidobacterium longum subsp. longum, UniProt E8MF12, D7V/R348H)
Description: (§3) Kinetics by CE assays. Reactions were carried out in duplicate at 37° C. for 10 min in a total volume of 20 μL in Tris-HCl buffer (200 mM, pH 7.5) containing MgCl2 (1 mM), ATP, GlcNAc or GalNAc, and NahK (0.25 μM when GlcNAc and ATP were used as substrates, 0.5 μM when GalNAc and ATP were used as substrates). Apparent kinetic parameters were obtained by varying the ATP concentration from 0.1-5.0 mM (0.1 mM, 0.2 mM, 0.4 mM, 1 mM, 2 mM, and 5 mM) at a fixed concentration of GlcNAc or GalNAc (1 mM), or varying the concentration of GlcNAc or GalNAc (0.1 mM, 0.2 mM, 0.4 mM, 1 mM, 2 mM, and 5 mM) at a fixed concentration of ATP (1 mM) and fitting the data to the Michaelis-Menten equation using Grafit 5.0.
(§4) Capillary electrophoresis (CE) assays. Based on the detection of ADP and ATP in the reaction mixture by a UV detector, a capillary electrophoresis-based method was developed to directly measure the formation of ADP and N-acetylhexosamine-1-phosphate from ATP and N-acetylhexosamine for characterizing the activities of NahKs.

[8] = tested on: necrotizing enterocolitis in neonatal rats; details: previously reported; cited from earlier work
[9] = molecular target: NahK_ATCC15697 (Bifidobacterium longum, UniProt B7GN78); assay: Kinetics by CE assays, NahK_ATCC15697; details: in the presence of ATP
Description: as §3, §4

In the case of `O=C[C@H](O)[C@@H](O)[C@H](O)[C@H](O)C(=O)O` [Compound F24-1, glucuronic acid], the “substrate for AtGlcAK (formation of sugar-1-phosphate)” value [1] is reported as “acceptable substrates”, the “Percentage conversion of ATP” value [2] is reported as 61.5% and the inhibition at 1000 µM [3] is reported as 68%. For the same compound, the inhibition at 1000 µM [4] was 54% and the inhibition at 1000 µM [5] was 65%.

In the case of `Nc1ncnc2c1ncn2[C@@H]1O[C@H](COP(=O)(O)OP(=O)(O)OP(=O)(O)O)[C@@H](O)[C@H]1O` [ATP, Adenosine-5′-triphosphate], the Km [6] is listed as 172 µM, the kcat ([7]; substrates ATP and GlcNAc) is listed as 1.3 ± 0.1 s⁻¹ and the Km ([7]; substrates ATP and GlcNAc, one varied, other fixed at 1 mM, 37° C., 10 min) is listed as 110 ± 30 µM.

In the case of `CC(=O)N[C@H]1[C@H](O[C@H]2[C@@H](O)[C@@H](CO)O[C@@H](O[C@@H]([C@H](O)[C@@H](O)C=O)[C@H](O)CO)[C@@H]2O)O[C@H](CO[C@]2(C(=O)O)C[C@H](O)[C@@H](NC(C)=O)[C@H]([C@H](O)[C@H](O)CO)O2)[C@@H](O)[C@@H]1O[C@@H]1O[C@H](CO)[C@H](O)[C@H](O[C@]2(C(=O)O)C[C@H](O)[C@@H](NC(C)=O)[C@H]([C@H](O)[C@H](O)CO)O2)[C@H]1O` [DSLNT, disialyllacto-N-tetraose], the “NEC preventing effect in neonatal rat model” value [8] is given as “effective for preventing necrotizing enterocolitis”.

With “GlcNAc6NH2α1-4GlcAβ1-4GlcNSα1-4GlcAβ2AA [Compound F24-15]” the “FGF-2 (% inhibition)” value [3] was 68% and the “FGF-4 (% inhibition)” value [4] was 43%.

In the case of `CC(=O)N[C@H]1C(O)O[C@H](CO)[C@@H](O)[C@@H]1O` (some centres unmarked) [GlcNAc, N-acetylglucosamine], the Km [6] is given as 118 µM, the “efficiency as substrate relative to GalNAc” value [9] is given as 3.1 fold and the “efficiency as substrate relative to GalNAc” value ([7]; in the presence of ATP) is given as 2.6 fold.
